Data on one molecule can be found in patent US8409560B2, “Solid dispersion formulations and methods of use thereof” (Zalicus Pharmaceuticals Ltd., priority 2011, dated 2013).

For orientation: half-life means the time needed for the level to fall by half in the phase considered.

Data set [1] is described as follows: Phase I (Group 2) study of HME or SDD formulations in healthy human subjects, fed (standard meal). In kind it is in vivo. The settings on record: 225 mg HME or SDD oral; for half-life: human, plasma, po, 225 mg. The protocol: Bioavailability of the ion channel modulator compound 1 was studied in healthy human subjects using SDD and HME formulations, with subjects in a fed state. The effect the SDD or HME formulation on bioavailability following a single oral dose under fed conditions was thereby evaluated and compared. Safety and tolerability of compound 1 was also evaluated.
This study utilized a single-center, single-dose open-label, 2-group, 2-period randomized crossover design to determine bioavailability following treatment with the SDD or HME formulation under fed conditions. A total of 16 subjects were selected by the criteria described in Example 10.
Subjects were treated with an oral dose of 225 mg HME (as described in Example 8, Table 14) or 225 mg SDD (as described in Example 7) with approximately 8 fluid ounces of water in the fed (standard meal) state. Subjects were randomized between HME and SDD formulations in equal numbers during period 1 of the trial, and, following a washout period, assigned to the opposite formulation during period 2. The fed condition is defined as the state of a subject following an overnight fast of at least 10 hours with a test meal provided 30 minutes prior to administration of the study drug. The subject must completely consume their respective meal before being dosed. Meals were standardized and standard meals were served according to a pre-determined schedule throughout the inpatient portion of the study. A standardized meal derived approximately 35% of total caloric content of the meal from fat, approximately 15-20% from protein, and approximately 45-50% from carbohydrates, with a total caloric content of approximately 400-450 calories. An example test meal would have included ⅝ ounces Cheerios®, 1 egg, 1 strip of bacon, 1 slice of toast with margarine, 6 ounces of low fat milk, and 4 ounces of orange juice. The time of food intake before and after study drug administration was documented. Water was allowed as desired except for one hour before and after drug administration. Outside of these restrictions, subjects in both fed and fasted conditions were provided fluid intake according to the subject's individual needs, with documentation. HME and SDD groups were dosed and evaluated simultaneously.
Treatments of 225 mg HME or SDD were administered on day 1 of period 1 of the trial and subjects were admitted to the clinical research unit (CRU) for four days of inpatient evaluation. Subjects were discharged from the CRU upon completion of assessments on day 4, and reported to the CRU for additional pharmacokinetic blood sampling and safety assessment on days 5 and 6, completing period 1. There was a 7-day washout between the first and second period drug administrations. In the second period, subjects were treated with an oral dose of 225 mg HME or 225 mg SDD in the fed (standard meal) state. The treatment was administered on day 1 of period 2 of the trial and subjects were admitted to the clinical research unit (CRU). Subjects were discharged from the CRU upon completion of assessments on day 4, and reported to the CRU for additional and followup pharmacokinetic blood sampling and safety assessment on days 5, 6, 8, 15, 22, 29, and 36 of period 2.
Pharmacokinetic assessments conducted during each treatment period were performed by the collection of venous blood samples via indwelling catheter or direct venipuncture. The plasma concentrations of the drug was determined for each sample. Concentration of the drug was determined using a validated liquid chromatography coupled with tandem mass (LC/MS/MS) assay, with a lower limit of quantitation (LLOQ) of 0.1 ng/mL. Descriptive statistics were calculated for these parameters and tabulated by formulation and period. Safety of the trial subjects was assessed by the following endpoints: adverse events, vital signs, ECG parameters, laboratory parameters, medical history, and physical examination. […]

The nature of data set [2]: Caco-2 apparent intestinal permeability. Type of data set: in vitro ADME. The settings on record: for recovery at 60 min, 1 μM: read-out: Percent Recovery. An excerpt: (§1) Absorption of particular drugs may be limited by biological factors, such as reduced cellular permeability in the intestine. Many cellular mechanisms can influence permeability, such as reduced passive paracellular and transcellular transport or increased active export by the efflux transporter protein P-glycoprotein. Thus, the use of self-emulsifying carriers may not be beneficial for drugs having limited cellular permeability, where methods to increase the solubilization of a drug may not increase its permeability in the gastrointestinal tract. Experiments were conducted to assess the apparent intestinal permeability of compound 1 using a Caco-2 cell model.
(§2) Briefly, Caco-2 cells were used as an in vitro model for predicting absorption through the intestinal epithelium. Confluent monolayers of Caco-2 cells were grown on collagen-coated, microporous, polycarbonate membranes (12-well Costar Transwell® plates) that are placed between two chambers. The apical side of the monolayer was exposed to the buffer solution in a first chamber, but the basolateral side of the monolayer adhered to microporous membranes fluidically connected to a second chamber. The dosing solution was added to the first chamber for measurements in the apical-to-basolateral direction (A-to-B) and to the second chamber for measurements in the basolateral-to-apical direction (B-to-A). […] The permeability assay buffer was Hanks Balanced Salt Solution containing 10 mM HEPES and 15 mM glucose at a pH of 7.4. The buffer in the receiver chamber also contained 1% bovine serum albumin. The dosing solution concentration was 1 μM of compound 1 in the assay buffer. All donor chambers were first pre-incubated for five minutes with dosing solution to attempt to saturate any non-specific binding sites on the device with test compound. After five minutes, the solution was removed and replaced with fresh dosing solution, and time was recorded as 0. Cell monolayers were dosed on the apical side/first chamber (for A-to-B measurements) or basolateral side/second chamber (for B-to-A measurements) and incubated at 37° C. with 5% CO2 in a humidified incubator. At 30 and 60 minutes, aliquots were taken from the receiver chambers and replaced with fresh assay buffer. Samples were taken from the donor chamber at 0 and 60 minutes. Each experiment was performed in triplicate.
(§3) The apparent permeability (Papp), percent recovery, and efflux ratio were calculated as follows:
(§4) [formula] [formula] where
(§5) [formula] is the slope of the cumulative concentration in the receiver chamber as a function of time; Vr [cm^3] is the volume of the receiver chamber; Vd [cm^3] is the volume of the donor chamber; A [cm^2] is the area of the cell monolayer, which is estimated to be about 1.13 cm^2 for the 12-well Costar Transwell® plates; C0 [μM] is the measured concentration in the donor chamber at t=0 hours; CN [μM] is the nominal concentration of the dosing solution; Cr final [μM] is the cumulative concentration in the receiver chamber at the end of the incubation period; and Cd final [μM] is the cumulative concentration in the donor chamber at the end of the incubation period.
(§6) Thus, absorption of compound 1 in humans is not expected to be permeability limited.

The test system of another data set is Caco-2 cells. As to the kind of experiment: Caco-2 apparent intestinal permeability. Type of data set: in vitro ADME. The settings on record: for Papp, replicates R1-R3: 1 μM.
Excerpt: as §1, §2, §3, §4, §5, §6

Where “and” joins values, the source holds several entries; their conditions need not be identical. Equal values may be shown once. Read-outs that look alike come from different tables or passages of the source.

For the molecule `O=C(CC(c1ccccc1)c1ccccc1)N1CCN(C(c2ccccc2)c2ccccc2)CC1` [Compound 1, 1-(4-benzhydrylpiperazin-1-yl)-3,3-diphenylpropan-1-one], in data set [1] (period 1, individual subjects), the “Half-Life Period 1” value was 617 h and 79 h and 75 h and 270 h and 73 h and 115 h and 112 h and 92 h and 94 h and 163 h and 96 h and 114 h and 72 h and 105 h and 77 h. The “Half-Life Period 2” value in data set [1] (period 2, individual subjects) was 104 h and 171 h and 176 h and 417 h and 82 h and 106 h and 149 h and 155 h and 137 h and 400 h and 193 h and 98 h and 71 h and 116 h and 114 h. Also, the “Half-Life Ratio” value in data set [1] (ratio period 1 to period 2, Mean) is 73%; in data set [1] (ratio period 1 to period 2, individual subjects) it was 76% and 44% and 43% and 65% and 89% and 108% and 75% and 59% and 69% and 41% and 50% and 116% and 101% and 91% and 68%. Further, the half-life in data set [1] (period 1, Mean, read-out: Half-Life Period 1 (converted)) was 139 h; in data set [1] (period 2, Mean, read-out: Half-Life Period 2 (converted)), 166 h. Also, the recovery at 60 min, 1 μM is 54% in data set [2] (Caco-2, pH 7.4, Cell-free); 28% in data set [2] (human, Caco-2, pH 7.4, A-to-B); 37% in data set [2] (human, Caco-2, pH 7.4, B-to-A). The Papp A→B at 60 min, 1 μM in data set [2] (human, Caco-2, pH 7.4, A-to-B, read-out: Papp Avg.) stood at 5.15 ×10⁻⁶ cm/s; in data set [2] (human, Caco-2, pH 7.4, A-to-B, read-out: Papp, replicates R1-R3) it was 4.37 ×10⁻⁶ cm/s. The Papp B→A at 60 min, 1 μM worked out at 4.32 ×10⁻⁶ cm/s in data set [2] (human, Caco-2, pH 7.4, B-to-A, read-out: Papp Avg.) and 5.04 ×10⁻⁶ cm/s in data set [2] (human, Caco-2, pH 7.4, B-to-A, read-out: Papp, replicates R1-R3). The efflux ratio at 60 min, 1 μM in data set [2] (human, Caco-2, pH 7.4, read-out: Efflux Ratio (Papp(B-to-A)/Papp(A-to-B))) came out at 0.8. The entries for the “Papp, replicates R1-R3” value with Caco-2 cells (A-to-B) and in the data set on Caco-2 cells (B-to-A) were 4.31 10^−6 cm/s and 3.48 10^−6 cm/s, respectively. Further, the permeability classification result in the data set with Caco-2 cells (Papp(A-to-B) more than 1.0×10^−6 cm/s) was “high permeability coefficient”. In addition, the efflux significance result in the data set with Caco-2 cells (efflux ratio of less than 3) was “not considered significant”.
